Test results from ChEMBL document CHEMBL1201862, “PubChem BioAssay data set” (2004).
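Following 48 hours of exposure in 96-well plates, responses at five concentrations were used to interpolate endpoints linearly. At the GI50, growth is halved.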 Calls of active or inactive are those of the source. Rule as the data show it: active = GI50 up to about 1.1 µM and inactive = higher.

Assays:
Assay in all cases: growth of human tumour cells (NCI), 48 h
SN12C = tested on: SN12C
CCRF-CEM = tested on: CCRF-CEM
KM12 = tested on: KM12
RPMI-8226 = tested on: RPMI-8226
HCT-116 = tested on: HCT-116
SK-MEL-5 = tested on: SK-MEL-5
HCC 2998 = tested on: HCC 2998
NCI-H460 = tested on: NCI-H460
OVCAR-3 = tested on: OVCAR-3
SK-MEL-2 = tested on: SK-MEL-2
SR = tested on: SR
786-0 = tested on: 786-0
SF-539 = tested on: SF-539
HOP-62 = tested on: HOP-62
NCI-H226 = tested on: NCI-H226

Row | Compound | GI50 (SN12C) | GI50 (CCRF-CEM) | GI50 (KM12) | GI50 (RPMI-8226) | GI50 (HCT-116) | GI50 (SK-MEL-5) | GI50 (HCC 2998) | GI50 (NCI-H460) | GI50 (OVCAR-3) | GI50 (SK-MEL-2) | GI50 (SR) | GI50 (786-0) | GI50 (SF-539) | GI50 (HOP-62) | GI50 (NCI-H226)
1 | C=C=C[P+](c1ccccc1)(c1ccccc1)c1ccccc1 | 3.78 µM (inactive) | 2.94 µM (inactive) | 13 µM (inactive) | 1.55 µM (inactive) | 3.37 µM (inactive) | 5.86 µM (inactive) | 42.6 µM (inactive) | 18.2 µM (inactive) | 5.57 µM (inactive) | 10.7 µM (inactive) | 21.3 µM (inactive) | 5.02 µM (inactive) | 14.8 µM (inactive) | 53.1 µM (inactive) | 
2 | CC(C)(CN1CCCCC1)C(=O)/C=C/c1ccc(Cl)c(Cl)c1 | 1.56 µM (inactive) | 1.09 µM (active) | 1.71 µM (inactive) | 2.52 µM (inactive) | 1.65 µM (inactive) | 2.07 µM (inactive) | 1.74 µM (inactive) | 1.65 µM (inactive) | 1.59 µM (inactive) | 1.73 µM (inactive) | 1.49 µM (inactive) | 1.38 µM (inactive) | 2.07 µM (inactive) | 1.95 µM (inactive) | 1.71 µM (inactive)
3 | Cc1cccc(C(C)C)c1N1C(=O)C(=O)C(c2nc3ccccc3o2)C(=O)C1=O | > 100 µM (inactive) | 20.2 µM (inactive) | > 100 µM (inactive) |  | 53.7 µM (inactive) | 60.1 µM (inactive) | 95.7 µM (inactive) | 76.7 µM (inactive) | 32.1 µM (inactive) | > 100 µM (inactive) | 70 µM (inactive) | > 100 µM (inactive) | > 100 µM (inactive) | > 100 µM (inactive) | > 100 µM (inactive)
4 | CCOC(=O)[C@H]1Nc2ccccc2C2c3ccccc3CC21 (stereo partly specified) | 29.4 µM (inactive) |  | 71 µM (inactive) | 37.9 µM (inactive) | 41.5 µM (inactive) | 21.8 µM (inactive) | 48.3 µM (inactive) | 38.6 µM (inactive) | 29.6 µM (inactive) | > 100 µM (inactive) | 27.4 µM (inactive) | > 100 µM (inactive) | > 100 µM (inactive) | > 100 µM (inactive) | > 100 µM (inactive)
5 | Cc1nc2ccncc2[nH]1 | > 100 µM (inactive) | > 100 µM (inactive) |  |  | > 100 µM (inactive) | > 100 µM (inactive) | > 100 µM (inactive) | > 100 µM (inactive) | > 100 µM (inactive) | > 100 µM (inactive) | > 100 µM (inactive) | > 100 µM (inactive) | > 100 µM (inactive) | > 100 µM (inactive) | > 100 µM (inactive)
6 | O=C1OC(CC(=O)c2ccc(Cl)cc2)C(Cl)=C1Cl (stereo unspecified) | > 100 µM (inactive) | 35.6 µM (inactive) | > 100 µM (inactive) | 46.6 µM (inactive) | > 100 µM (inactive) | > 100 µM (inactive) | > 100 µM (inactive) | > 100 µM (inactive) | > 100 µM (inactive) | > 100 µM (inactive) | 48.3 µM (inactive) | > 100 µM (inactive) | > 100 µM (inactive) | > 100 µM (inactive) | > 100 µM (inactive)
7 | CSc1nc2c(nc(C)c(=O)n2C2OCC(OC(C)=O)C(OC(C)=O)C2OC(C)=O)c(=O)[nH]1 (stereo unspecified) | > 100 µM (inactive) | > 100 µM (inactive) | > 100 µM (inactive) | > 100 µM (inactive) | > 100 µM (inactive) | > 100 µM (inactive) | > 100 µM (inactive) | > 100 µM (inactive) | > 100 µM (inactive) | > 100 µM (inactive) | > 100 µM (inactive) | > 100 µM (inactive) |  | > 100 µM (inactive) | 
8 | COc1ccccc1/C=C1\C(=O)N(C(=O)Cc2ccccc2)N=C1C | > 100 µM (inactive) | > 100 µM (inactive) | > 100 µM (inactive) | > 100 µM (inactive) | > 100 µM (inactive) | > 100 µM (inactive) | > 100 µM (inactive) | > 100 µM (inactive) | > 100 µM (inactive) | > 100 µM (inactive) | > 100 µM (inactive) | > 100 µM (inactive) | > 100 µM (inactive) | > 100 µM (inactive) | > 100 µM (inactive)
9 | Cc1nc(C(N)=S)sc1C(=O)CC(=O)C(=O)Nc1ccccc1[N+](=O)[O-] |  | > 100 µM (inactive) | > 100 µM (inactive) | > 100 µM (inactive) | > 100 µM (inactive) | > 100 µM (inactive) | > 100 µM (inactive) | > 100 µM (inactive) | > 100 µM (inactive) | > 100 µM (inactive) | > 100 µM (inactive) | > 100 µM (inactive) | > 100 µM (inactive) | > 100 µM (inactive) | 
